# Measurements from ChEMBL document CHEMBL6114957, “Exploring anticancer properties of new triazole-linked benzenesulfonamide derivatives against colorectal carcinoma: Synthesis, cytotoxicity, and in silico insights” (Bioorg Med Chem, 2025).
# Tests used:
# [1] = Cytotoxicity against human CCD-986Sk cells assessed as cell viability incubated for 48 hrs by MTT assay; assay type: toxicity, cell-based
# COLO 205 = experiment: Cytotoxicity against human COLO 205 cells assessed as cell viability incubated for 48 hrs by MTT assay; assay type: functional, cell-based; conditions: COLO 205, 48 h
# DLD-1 [2] = experiment: Cytotoxicity against human DLD-1 cells assessed as cell viability incubated for 48 hrs by MTT assay; assay type: functional, cell-based; conditions: DLD-1, 48 h
# HT-29 = experiment: Cytotoxicity against human HT-29 cells assessed as cell viability incubated for 48 hrs by MTT assay; assay type: functional, cell-based; conditions: HT-29, 48 h
# DLD-1 [3] = experiment: Induction of apoptosis in human DLD-1 cells assessed as necrotic cells at 10 uM incubated for 48 hrs by Annexin V staining based flow cytometry (reference value: 5.12 %); assay type: functional
# DLD-1 [4] = experiment: Induction of apoptosis in human DLD-1 cells assessed as viable cells at 10 uM incubated for 48 hrs by Annexin V staining based flow cytometry (reference value: 81.96 %); assay type: functional; conditions: read-out: Activity
# DLD-1 [5] = experiment: Induction of apoptosis in human DLD-1 cells assessed as early apoptotic cells at 10 uM incubated for 48 hrs by Annexin V staining based flow cytometry (reference value: 6.73 %); assay type: functional
# DLD-1 [6] = experiment: Induction of apoptosis in human DLD-1 cells assessed as late apoptotic cells at 10 uM incubated for 48 hrs by Annexin V staining based flow cytometry (reference value: 6.19 %); assay type: functional
# DLD-1 [7] = experiment: Induction of apoptosis in human DLD-1 cells assessed as early apoptotic cells at 5 uM incubated for 48 hrs by Annexin V staining based flow cytometry (reference value: 6.73 %); assay type: functional
# DLD-1 [8] = experiment: Induction of apoptosis in human DLD-1 cells assessed as late apoptotic cells at 5 uM incubated for 48 hrs by Annexin V staining based flow cytometry (reference value: 6.19 %); assay type: functional
# DLD-1 [9] = experiment: Induction of apoptosis in human DLD-1 cells assessed as necrotic cells at 5 uM incubated for 48 hrs by Annexin V staining based flow cytometry (reference value: 5.12 %); assay type: functional
# DLD-1 [10] = experiment: Induction of apoptosis in human DLD-1 cells assessed as viable cells at 5 uM incubated for 48 hrs by Annexin V staining based flow cytometry (reference value: 81.96 %); assay type: functional; conditions: read-out: Activity
smiles,measurement,setting,value
NS(=O)(=O)c1ccc(-n2cc(COc3ccc(C(=O)c4ccccc4)cc3)nn2)cc1,IC50 at 48 h,[1],15.2 µM
same,IC50,COLO 205,> 200 µM
same,IC50,DLD-1 [2],19 µM
same,IC50,HT-29,20.6 µM
Cc1ccc(OCc2cn(-c3ccc(S(N)(=O)=O)cc3)nn2)c([N+](=O)[O-])c1,IC50 at 48 h,[1],25.9 µM
same,IC50,COLO 205,165 µM
same,IC50,DLD-1 [2],13 µM
same,IC50,HT-29,62.8 µM
CCN(CC)c1ccc(C=O)c(OCc2cn(-c3ccc(S(N)(=O)=O)cc3)nn2)c1,IC50 at 48 h,[1],185 µM
same,IC50,COLO 205,148 µM
same,IC50,DLD-1 [2],53.4 µM
same,IC50,HT-29,41.9 µM
NS(=O)(=O)c1ccc(-n2cc(COc3ccc([N+](=O)[O-])cc3C=O)nn2)cc1,Activity,DLD-1 [3],2.85%
same,IC50 at 48 h,[1],> 200 µM
same,viability at 10 µM,DLD-1 [4],55%
same,Activity,DLD-1 [5],33.56%
same,IC50,COLO 205,132 µM
same,Activity,DLD-1 [6],8.59%
same,IC50,DLD-1 [2],11.8 µM
same,IC50,HT-29,9.35 µM
NS(=O)(=O)c1ccc(-n2cc(COc3ccccc3C=O)nn2)cc1,IC50 at 48 h,[1],96.3 µM
same,IC50,COLO 205,147 µM
same,IC50,DLD-1 [2],52.1 µM
same,IC50,HT-29,65 µM
NS(=O)(=O)c1ccc(-n2cc(COc3ccc(Br)cc3C=O)nn2)cc1,IC50 at 48 h,[1],> 200 µM
same,IC50,COLO 205,> 200 µM
same,IC50,DLD-1 [2],51.1 µM
same,IC50,HT-29,> 200 µM
NS(=O)(=O)c1ccc(-n2cc(COc3ccc(Cl)cc3Cl)nn2)cc1,IC50 at 48 h,[1],78.2 µM
same,IC50,COLO 205,172 µM
same,IC50,DLD-1 [2],24.9 µM
same,IC50,HT-29,63.6 µM
Cc1ccc(C(C)C)cc1OCc1cn(-c2ccc(S(N)(=O)=O)cc2)nn1,IC50 at 48 h,[1],12.8 µM
same,IC50,COLO 205,> 200 µM
same,IC50,DLD-1 [2],16.6 µM
same,IC50,HT-29,35.9 µM
NS(=O)(=O)c1ccc(-n2cc(COc3ccc([N+](=O)[O-])cc3)nn2)cc1,IC50 at 48 h,[1],69.8 µM
same,IC50,COLO 205,124 µM
same,IC50,DLD-1 [2],76.8 µM
same,IC50,HT-29,78 µM
C=CCc1ccc(OCc2cn(-c3ccc(S(N)(=O)=O)cc3)nn2)c(OC)c1,IC50 at 48 h,[1],134 µM
same,IC50,COLO 205,> 200 µM
same,IC50,DLD-1 [2],49.8 µM
same,IC50,HT-29,75.3 µM
CC(=O)c1ccccc1OCc1cn(-c2ccc(S(N)(=O)=O)cc2)nn1,IC50 at 48 h,[1],139 µM
same,IC50,COLO 205,160 µM
same,IC50,DLD-1 [2],51 µM
same,IC50,HT-29,80 µM
CC(=O)c1cccc(OCc2cn(-c3ccc(S(N)(=O)=O)cc3)nn2)c1,IC50 at 48 h,[1],> 200 µM
same,IC50,COLO 205,81.3 µM
same,IC50,DLD-1 [2],79.2 µM
same,IC50,HT-29,128 µM
NS(=O)(=O)c1ccc(-n2cc(COc3ccc(C=O)cc3)nn2)cc1,IC50 at 48 h,[1],> 200 µM
same,IC50,COLO 205,75.1 µM
same,IC50,DLD-1 [2],164 µM
same,IC50,HT-29,> 200 µM
NS(=O)(=O)c1ccc(-n2cc(COc3cccc(C=O)c3)nn2)cc1,IC50 at 48 h,[1],> 200 µM
same,IC50,COLO 205,40.9 µM
same,IC50,DLD-1 [2],122 µM
same,IC50,HT-29,> 200 µM
NS(=O)(=O)c1ccc(-n2cc(COc3ccc4ccccc4c3C=O)nn2)cc1,IC50 at 48 h,[1],> 200 µM
same,IC50,COLO 205,> 200 µM
same,IC50,DLD-1 [2],153 µM
same,IC50,HT-29,> 200 µM
CC(=O)c1ccc(OCc2cn(-c3ccc(S(N)(=O)=O)cc3)nn2)cc1,IC50 at 48 h,[1],> 200 µM
same,IC50,COLO 205,> 200 µM
same,IC50,DLD-1 [2],123 µM
same,IC50,HT-29,> 200 µM
CC(=O)c1cc(Cl)ccc1OCc1cn(-c2ccc(S(N)(=O)=O)cc2)nn1,IC50 at 48 h,[1],51.3 µM
same,IC50,COLO 205,> 200 µM
same,IC50,DLD-1 [2],15.9 µM
same,IC50,HT-29,187 µM
COc1cccc(C=O)c1OCc1cn(-c2ccc(S(N)(=O)=O)cc2)nn1,IC50 at 48 h,[1],> 200 µM
same,IC50,COLO 205,> 200 µM
same,IC50,DLD-1 [2],180 µM
same,IC50,HT-29,> 200 µM
Cc1ccc(C(C)C)c(OCc2cn(-c3ccc(S(N)(=O)=O)cc3)nn2)c1,IC50 at 48 h,[1],13.1 µM
same,IC50,COLO 205,> 200 µM
same,IC50,DLD-1 [2],35 µM
same,IC50,HT-29,33.2 µM
O=c1[nH]cc(F)c(=O)[nH]1 [FLUOROURACIL],IC50 at 48 h,[1],7.98 µM
same,IC50,COLO 205,90.1 µM
same,IC50,DLD-1 [2],5.75 µM
same,IC50,HT-29,4.51 µM
same,Activity,DLD-1 [7],25.5%
same,Activity,DLD-1 [8],9.91%
same,Activity,DLD-1 [9],3.73%
same,viability at 5 µM,DLD-1 [10],60.9%
